Reference: US12371428B2 (Exelixis, Inc., priority 2019, dated 2025)

What was measured:
Type in all cases: biochemical
[1] = biological target: Human MET (residues 956-1390) (Homo sapiens (Human), UniProt P08581); assay: Human Met kinase assay, HTRF KinEase (Example D-2); details: protocol of Example D-2; read-out: c-Met IC50
Procedure, shortened: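 IC50 values come from a 4-parameter logistic fit of the […] fluorescence ratio, set between DMSO (100%) and reference compound at 1 μM (0%). Reactions held MET 956-1390 at 0.1 ng/well, ATP at Km, biotinylated peptide, 5 mM MgCl2, 1 mM MnCl2, 1 mM DTT and 3% DMSO, and ran 40 min at room temperature before streptavidin-XL665/Eu-antibody detection.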

[2] = biological target: Human MER (residues 528-999) (Homo sapiens (Human), UniProt Q12866); assay: Human Mer kinase assay, HTRF KinEase (Example C-2); details: protocol of Example C-2
Procedure, shortened: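 IC50 values from 10 concentrations via 4-parameter logistic fit of […], with DMSO as 100% and 1 μM reference compound as 0% activity. Reaction: MER kinase domain 528-999, 1 ng/well, 40 μM ATP (Km), biotin peptide, 5 mM MgCl2, 1 mM DTT, 3% DMSO, room temperature 60 min; HTRF streptavidin-XL665/Eu-antibody detection.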

[3] = biological target: Human KDR (residues 790-1356) (Homo sapiens (Human), UniProt P35968); assay: Human KDR kinase assay, HTRF KinEase (Example B-2); details: protocol of Example B-2
Procedure, shortened: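 Human KDR residues 790-1356 (0.1 ng/well) in buffer with 5 mM MgCl2, 1 mM MnCl2, 1 mM DTT, biotinylated peptide substrate, ATP at Km (4.0 μM), 3% DMSO, 10 compound concentrations; 40 min, room temperature. EDTA stop, streptavidin-XL665/Eu-TK antibody HTRF read 665/620 nm; 4-parameter IC50.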

Human KDR (residues 790-1356), sequence (P35968 790-1356): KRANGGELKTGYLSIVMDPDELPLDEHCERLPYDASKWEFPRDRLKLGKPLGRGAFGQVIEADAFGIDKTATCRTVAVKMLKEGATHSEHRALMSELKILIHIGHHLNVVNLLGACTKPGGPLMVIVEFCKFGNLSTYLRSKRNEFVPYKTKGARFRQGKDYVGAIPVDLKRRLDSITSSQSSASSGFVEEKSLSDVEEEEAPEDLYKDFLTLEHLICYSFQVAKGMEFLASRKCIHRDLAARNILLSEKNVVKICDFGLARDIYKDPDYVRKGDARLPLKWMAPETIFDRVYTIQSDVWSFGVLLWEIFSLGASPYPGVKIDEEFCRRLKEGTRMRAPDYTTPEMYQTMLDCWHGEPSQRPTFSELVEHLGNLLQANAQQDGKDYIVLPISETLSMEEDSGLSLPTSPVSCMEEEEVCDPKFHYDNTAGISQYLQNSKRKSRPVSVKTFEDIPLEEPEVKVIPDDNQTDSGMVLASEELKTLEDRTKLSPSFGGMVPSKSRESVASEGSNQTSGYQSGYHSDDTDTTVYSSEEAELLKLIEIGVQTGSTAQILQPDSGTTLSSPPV
Human MER (residues 528-999), sequence (Q12866 528-999): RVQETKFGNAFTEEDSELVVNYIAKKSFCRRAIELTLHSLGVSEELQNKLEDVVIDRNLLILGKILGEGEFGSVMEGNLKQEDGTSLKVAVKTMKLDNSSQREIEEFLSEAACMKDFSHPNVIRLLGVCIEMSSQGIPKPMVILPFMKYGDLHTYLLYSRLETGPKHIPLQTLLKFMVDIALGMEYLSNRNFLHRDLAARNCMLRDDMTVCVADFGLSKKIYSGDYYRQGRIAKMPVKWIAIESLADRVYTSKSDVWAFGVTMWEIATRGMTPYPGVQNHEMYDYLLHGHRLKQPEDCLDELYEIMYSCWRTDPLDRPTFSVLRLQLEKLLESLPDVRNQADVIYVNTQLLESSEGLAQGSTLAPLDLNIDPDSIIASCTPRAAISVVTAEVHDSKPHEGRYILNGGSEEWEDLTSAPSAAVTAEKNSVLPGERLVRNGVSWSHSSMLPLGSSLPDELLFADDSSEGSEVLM
Human MET (residues 956-1390), sequence (P08581 956-1390): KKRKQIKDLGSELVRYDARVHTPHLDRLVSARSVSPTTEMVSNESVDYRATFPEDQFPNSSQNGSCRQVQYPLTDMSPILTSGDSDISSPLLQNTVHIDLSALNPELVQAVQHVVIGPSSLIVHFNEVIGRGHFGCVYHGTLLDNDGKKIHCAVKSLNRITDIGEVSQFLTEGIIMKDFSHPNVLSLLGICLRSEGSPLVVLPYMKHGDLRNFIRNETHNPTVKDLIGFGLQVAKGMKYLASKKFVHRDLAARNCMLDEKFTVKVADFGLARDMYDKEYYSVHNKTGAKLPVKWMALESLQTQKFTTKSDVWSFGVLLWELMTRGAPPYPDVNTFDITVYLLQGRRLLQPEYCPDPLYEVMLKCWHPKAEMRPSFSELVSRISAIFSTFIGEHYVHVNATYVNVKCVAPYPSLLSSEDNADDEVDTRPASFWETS

| IC50 [1] [nM] | IC50 [2] [nM] | IC50 [3] [nM] | SMILES |
| --- | --- | --- | --- |
| < 100 | < 100 | 100 to 300 | COc1cc2nccc(Oc3ccc(NC(=O)c4c(C)n(C)cc(-c5ccc(F)cc5C)c4=O)cc3F)c2nc1OC [Compound 481, N-[4-[(6,7-dimethoxy-1,5-naphthyridin-4-yl)oxy]-3-fluorophenyl]-5-(4-fluoro-2-methylphenyl)-1,2-dimethyl-4-oxopyridine-3-carboxamide] |
| < 100 | < 100 | < 100 | COCCOc1cc2nccc(Oc3ccc(NC(=O)c4c(COC)nc(C)c(-c5ccc(F)cc5)c4O)cc3F)c2nc1OC [Compound 482, N-[3-fluoro-4-[[6-methoxy-7-(2-methoxyethoxy)-1,5-naphthyridin-4-yl]oxy]phenyl]-5-(4-fluorophenyl)-4-hydroxy-2-(methoxymethyl)-6-methylpyridine-3-carboxamide] |
| > 300 | 100 to 300 | > 300 | COc1ccc2nccc(Oc3ccc(NC(=O)c4c(C)n(C)cc(-c5ccc(F)cc5C)c4=O)cc3F)c2n1 [Compound 483, N-[3-fluoro-4-[(6-methoxy-1,5-naphthyridin-4-yl)oxy]phenyl]-5-(4-fluoro-2-methylphenyl)-1,2-dimethyl-4-oxopyridine-3-carboxamide] |
| < 100 | < 100 | 100 to 300 | COc1cc2c(Oc3ccc(NC(=O)c4ccc(C)n(-c5ccc(F)cc5)c4=O)cc3F)ccnc2cn1 [Compound 494, N-[3-fluoro-4-[(6-methoxy-1,7-naphthyridin-4-yl)oxy]phenyl]-1-(4-fluorophenyl)-6-methyl-2-oxopyridine-3-carboxamide] |
| < 100 | < 100 | < 100 | COc1cc2nccc(Oc3ccc(NC(=O)c4cn(C)cc(-c5ccc(F)cc5C)c4=O)cc3F)c2nc1OC [Compound 503, N-[4-[(6,7-dimethoxy-1,5-naphthyridin-4-yl)oxy]-3-fluorophenyl]-5-(4-fluoro-2-methylphenyl)-1-methyl-4-oxopyridine-3-carboxamide] |
| < 100 | < 100 | < 100 | CCc1ncc(C(=O)Nc2ccc(Oc3ccnc4cc(OC)c(OC)nc34)c(F)c2)c(O)c1-c1ccc(F)cc1 [Compound 504, N-[4-[(6,7-dimethoxy-1,5-naphthyridin-4-yl)oxy]-3-fluorophenyl]-6-ethyl-5-(4-fluorophenyl)-4-hydroxypyridine-3-carboxamide] |
| < 100 | 100 to 300 | > 300 | Cc1cc(F)ccc1-c1c(C)nc(C)c(C(=O)Nc2ccc(Oc3ccnc4cccnc34)c(F)c2)c1O [Compound 505, 5-(4-fluoro-2-methylphenyl)-N-[3-fluoro-4-(1,5-naphthyridin-4-yloxy)phenyl]-4-hydroxy-2,6-dimethylpyridine-3-carboxamide] |
| < 100 | < 100 | > 300 | Cc1ccc2nccc(Oc3ccc(NC(=O)c4c(C)nc(C)c(-c5ccc(F)cc5C)c4O)cc3F)c2n1 [Compound 506, N-[3-fluoro-4-[(6-methyl-1,5-naphthyridin-4-yl)oxy]phenyl]-5-(4-fluoro-2-methylphenyl)-4-hydroxy-2,6-dimethylpyridine-3-carboxamide] |
| < 100 | < 100 | > 300 | COc1cnc2c(Oc3ccc(NC(=O)c4c(C)n(C)c(C)c(-c5ccc(F)cc5)c4=O)cc3F)ccnc2c1 [Compound 508, N-[3-fluoro-4-[(7-methoxy-1,5-naphthyridin-4-yl)oxy]phenyl]-5-(4-fluorophenyl)-1,2,6-trimethyl-4-oxopyridine-3-carboxamide] |
| < 100 | < 100 | < 100 | CCc1nc(C)c(-c2ccc(F)cc2)c(O)c1C(=O)Nc1ccc(Oc2ccnc3ccc(OC)nc23)cc1 [Compound 509, 2-ethyl-5-(4-fluorophenyl)-4-hydroxy-N-[4-[(6-methoxy-1,5-naphthyridin-4-yl)oxy]phenyl]-6-methylpyridine-3-carboxamide] |
| < 100 | < 100 | 100 to 300 | COCc1nc(C)c(-c2ccc(F)cc2)c(O)c1C(=O)Nc1ccc(Oc2ccnc3ccc(OC)nc23)cc1 [Compound 510, 5-(4-fluorophenyl)-4-hydroxy-2-(methoxymethyl)-N-[4-[(6-methoxy-1,5-naphthyridin-4-yl)oxy]phenyl]-6-methylpyridine-3-carboxamide] |
| < 100 | < 100 | 100 to 300 | COc1cc2nccc(Oc3ccc(NC(=O)c4c(C)n(C)c(C)c(-c5ccc(F)cc5)c4=O)cc3F)c2nc1OC [Compound 511, N-[4-[(6,7-dimethoxy-1,5-naphthyridin-4-yl)oxy]-3-fluorophenyl]-5-(4-fluorophenyl)-1,2,6-trimethyl-4-oxopyridine-3-carboxamide] |
| < 100 | < 100 | < 100 | COc1cc2nccc(Oc3ccc(NC(=O)c4nn(C)c(C)c(-c5ccc(F)cc5C)c4=O)cc3F)c2nc1OC [Compound 512, N-[4-[(6,7-dimethoxy-1,5-naphthyridin-4-yl)oxy]-3-fluorophenyl]-5-(4-fluoro-2-methylphenyl)-1,6-dimethyl-4-oxopyridazine-3-carboxamide] |
| < 100 | < 100 | < 100 | COc1cnc2c(Oc3ccc(NC(=O)c4nn(C)c(C)c(-c5ccc(F)cc5C)c4=O)cc3F)ccnc2c1 [Compound 513, N-[3-fluoro-4-[(7-methoxy-1,5-naphthyridin-4-yl)oxy]phenyl]-5-(4-fluoro-2-methylphenyl)-1,6-dimethyl-4-oxopyridazine-3-carboxamide] |
| < 100 | < 100 | < 100 | COc1cnc2c(Oc3ccc(NC(=O)c4nn(C)c(C)c(-c5ccc(F)cc5C)c4=O)cc3)ccnc2c1 [Compound 514, 5-(4-fluoro-2-methylphenyl)-N-[4-[(7-methoxy-1,5-naphthyridin-4-yl)oxy]phenyl]-1,6-dimethyl-4-oxopyridazine-3-carboxamide] |
| < 100 | < 100 | < 100 | COc1cnc2c(Oc3ccc(NC(=O)c4nnc(C)c(-c5ccc(F)cc5)c4OC)cc3)ccnc2c1 [Compound 515, 5-(4-fluorophenyl)-4-methoxy-N-[4-[(7-methoxy-1,5-naphthyridin-4-yl)oxy]phenyl]-6-methylpyridazine-3-carboxamide] |
| < 100 | < 100 | > 300 | COCc1nc(C)c(-c2ccc(F)cc2C)c(O)c1C(=O)Nc1ccc(Oc2ccnc3ccc(OC)nc23)cc1 [Compound 516, 5-(4-fluoro-2-methylphenyl)-4-hydroxy-2-(methoxymethyl)-N-[4-[(6-methoxy-1,5-naphthyridin-4-yl)oxy]phenyl]-6-methylpyridine-3-carboxamide] |
| < 100 | < 100 | < 100 | COc1cc2nccc(Oc3ccc(NC(=O)c4nn(C)c(C)c(-c5ccc(F)cc5C)c4=O)cc3)c2nc1OC [Compound 517, N-[4-[(6,7-dimethoxy-1,5-naphthyridin-4-yl)oxy]phenyl]-5-(4-fluoro-2-methylphenyl)-1,6-dimethyl-4-oxopyridazine-3-carboxamide] |
| < 100 | < 100 | < 100 | COc1cc2nccc(Oc3ccc(NC(=O)c4c(C)nc(C)c(-c5ccc(F)cc5CO)c4O)cc3F)c2nc1OC [Compound 518, N-[4-[(6,7-dimethoxy-1,5-naphthyridin-4-yl)oxy]-3-fluorophenyl]-5-[4-fluoro-2-(hydroxymethyl]phenyl]-4-hydroxy-2,6-dimethylpyridine-3-carboxamide] |
| 100 to 300 | < 100 | > 300 | COc1cc2nccc(Oc3ccc(NC(=O)c4cc(C)nn(-c5ccc(F)cc5)c4=O)cc3F)c2nc1OC [Compound 519, N-[4-[(6,7-dimethoxy-1,5-naphthyridin-4-yl)oxy]-3-fluorophenyl]-2-(4-fluorophenyl)-6-methyl-3-oxopyridazine-4-carboxamide] |
| < 100 | < 100 | > 300 | COc1cc2nccc(Oc3ccc(NC(=O)c4cc(C)nn(-c5ccc(F)cc5)c4=O)cc3)c2nc1OC [Compound 520, N-[4-[(6,7-dimethoxy-1,5-naphthyridin-4-yl)oxy]phenyl]-2-(4-fluorophenyl)-6-methyl-3-oxopyridazine-4-carboxamide] |
| < 100 | < 100 | > 300 | COc1cnc2c(Oc3ccc(NC(=O)c4cc(C)nn(-c5ccc(F)cc5)c4=O)cc3F)ccnc2c1 [Compound 521, N-[3-fluoro-4-[(7-methoxy-1,5-naphthyridin-4-yl)oxy]phenyl]-2-(4-fluorophenyl)-6-methyl-3-oxopyridazine-4-carboxamide] |
| 100 to 300 | 100 to 300 | > 300 | COc1cnc2c(Oc3ccc(NC(=O)c4cc(C)nn(-c5ccc(F)cc5)c4=O)cc3)ccnc2c1 [Compound 522, 2-(4-fluorophenyl)-N-[4-[(7-methoxy-1,5-naphthyridin-4-yl)oxy]phenyl]-6-methyl-3-oxopyridazine-4-carboxamide] |
